Consider 14 compounds from patent US20250074946A1, “USE OF SE-DR AFFINITY PEPTIDE IN PREPARING DRUG FOR TREATING RHEUMATIC DISEASE” (HEBEI FITNESS BIOTECHNOLOGY CO., LTD., priority 2021, published 2025).

Where a SMILES comes first, the peptide text is derived from it. Where no end group is shown, it is not given here.

The subject of one data set is PBMC. The data set can be described thus: PBMC stimulation test, IL-6 in supernatant by ELISA. As to conditions: PBMC 1×10^6 cell/ml, peptide 10 μg/ml, 5 days of culture. The format is cell-based, human. The source says: The SE-DR molecule is directly related to the pathogenesis of RA. It can present RA-related autoantigens in vivo, such as type II collagen (CII), heat shock protein 60 (Hsp60), cartilage glycoprotein (HCgp-39) and so on, and further activate autoreactive T cells, leading to the occurrence of rheumatoid arthritis. An important strategy for the treatment of RA is to use competitive inhibition to block the activation of autoreactive T cells by autoantigen peptides. […] Based on the above principles, we have designed and synthesized a series of altered peptide ligands, and screened for their affinity to SE-DR and for the activation ability on the peripheral blood T cells in RA patients. The specific steps and results are shown in Example 1 and Example 2.
3 mL ficoll was added to a 15 mL centrifuge tube, and 4 mL blood sample was then applied on the surface of ficoll. The tube was centrifuged at 400 g at 18-20° C. for 30-40 min. The upper layer of plasma was aspirated with a Pasteur pipette, and the PBMC layer (approximately 2 mL) was aspirated, and added to a 14 mL centrifuge tube previously filled with at least 3 volumes (6 mL) of PBS. The mixture was gently resuspended. The tube was centrifuged at 60-100 g for 10 min at 18-20° C. After centrifugation, the supernatant was removed with a Pasteur pipette, and the resulting cell mass was resuspended in 6-8 mL PBS and centrifuged at 18-20° C. for 10 min at 60-100 g to remove the supernatant. The cells were resuspended in an appropriate amount of 1640 complete medium and diluted to 1×10^6 cell/ml after cell counting. The diluted cell suspension was added to a 96-well plate. The positive control, allosteric peptide, was added to 100 μl cell culture to a final concentration of 10 μg/ml. The mixture was replenished to 200 μL with 1640 complete medium. After 5 days of culture, the supernatant was aspirated, centrifuged at 3000 rpm for 5 minutes, and the level of IL-6 in the supernatant was detected by ELISA.
(In general: ELISA stands for enzyme-linked immunosorbent assay.)

In data set [1] the test system is CIA mice infected with chronic hepatitis B. In words: CIA mice infected with chronic hepatitis B (Example 8). The format is in vivo, mouse. The procedure:
Establishment of chronic hepatitis B model in mice: DBA/1 mice were injected with Raav8-1. 3 HBV (1×10^12 vg/mL) via tail vein to establish HBV chronic hepatitis B model.
DBA/1 mice infected with chronic hepatitis B were used to establish CIA model with chronic hepatitis B infection. Methods: Two days after the mice were injected with Raav8-1.3 HBV (1×10^12 vg/mL) via tail vein, the emulsion of bovine C II and CFA (containing 100 μg collagen) was intradermally injected into the tail head of the mice for immunization. After 21 days, the mice were boosted once by intraperitoneal injection of the emulsion (containing 100 μg collagen) prepared by bovine C II and IFA. Thereafter, the morphological changes of the four paws of the mice were examined every day, and the mice were randomly assigned to the treatment group at inflammation score of 1. […] Another 10 mice with latent hepatitis B infection were not subjected to model establishment and set as the control group. PBS was administrated to both the model group and the control group. The mice in each group were given the corresponding drugs by tail intravenous injection at the volume of 10 ml/kg, once every other day, for 27 consecutive days. The mice were sacrificed on day 28 after administration. The inflammation scores of the four paws of the mice in each group were evaluated during the administration. The serological indicators for virus injection and liver function of the mice were detected on the day of booster immunization (22 days after tail vein injection) and at the time of sacrifice.

In data set [2] the test system is immune system of healthy monkeys. The data set can be described thus: Immune indicators of cynomolgus monkeys after one month of administration (Example 5). Type of data set: in vivo, cynomolgus monkey. As to conditions: once a day for 4 weeks, end of administration. The source says: Cynomolgus monkeys were used to investigate the effects of the SE-DR affinity peptide on the immune indicators of cynomolgus monkeys after continuous administration for one month. […] At the end of administration, the immune indicators, including the serum anti-FNS007 antibodies, the immunoglobulins of different serotypes, the serum complement, the peripheral blood T lymphocyte and the serum cytokines, were observed.

Data set [3] concerns CIA rats with latent tuberculosis infection.
In data set [4] the test system is immune system of healthy rats. In words: Immune indicators of SD rats after one month of administration (Example 4). The format is in vivo, rat. The note with it: once a day for 4 weeks, end of administration. The procedure:
SD rats were used to investigate the effects of the SE-DR affinity peptides on the immune indicators of the rats after continuous administration for one month. […] At the end of administration, analysis was conducted on the serum anti-FNS007 antibodies, different types of serum immunoglobulins, the serum complement, the peripheral blood T lymphocyte and the serum cytokines.

For YVAQNTLKLA [APL5], the “IL-6 levels in the supernatant” value in the data set on PBMC was found to be 8.7 ng/mL.

Take `CC(C)C[C@H](NC(=O)[C@@H](NC(=O)[C@H](Cc1ccccc1)NC(=O)[C@H](CO)NC(=O)[C@@H](N)CCCNC(=N)N)[C@@H](C)O)C(=O)N[C@@H](CC(=O)O)C(=O)NCC(=O)N[C@@H](CO)C(=O)N[C@@H](CCC(=O)O)C(=O)N[C@H](C(=O)NCC(=O)N[C@H](C(=O)NCC(=O)O)C(C)C)[C@@H](C)O` [APL19]: the “IL-6 levels in the supernatant” value with PBMC came to 15.8 ng/mL.

`CC(C)C[C@H](NC(=O)[C@H](CCCNC(N)=O)NC(=O)[C@@H](NC(=O)[C@H](C)NC(=O)[C@H](CO)NC(=O)[C@H](CO)NC(=O)[C@H](CCCNC(N)=O)NC(=O)[C@@H](NC(=O)[C@H](C)NC(=O)[C@H](Cc1ccc(O)cc1)NC(=O)[C@@H](NC(=O)CN)C(C)C)[C@@H](C)O)C(C)C)C(=O)N[C@@H](CCCNC(N)=O)C(=O)O` [APL34, GVYATCitSSAACitLCit]: the “IL-6 levels in the supernatant” value in the data set on PBMC stood at 5.2 ng/mL.

As to `CC(C)C[C@H](NC(=O)CNC(=O)[C@H](CCCNC(N)=O)NC(=O)[C@H](C)NC(=O)[C@@H]1CCCN1C(=O)[C@@H]1CCCN1C(=O)[C@@H]1CCCN1C(=O)[C@H](C)NC(=O)[C@@H]1CCCN1C(=O)[C@H](CCCNC(N)=O)NC(=O)[C@H](CO)NC(=O)[C@H](CCCNC(=N)N)NC(=O)CNC(=O)[C@H](CCCNC(N)=O)NC(=O)[C@@H](NC(=O)[C@H](CO)NC(=O)[C@H](CCC(=O)O)NC(=O)[C@@H](NC(=O)[C@H](CO)NC(=O)[C@H](CO)NC(=O)[C@H](CCCNC(N)=O)NC(=O)[C@H](CC(C)C)NC(=O)[C@H](CCCNC(N)=O)NC(=O)[C@@H](N)C(C)C)C(C)C)[C@@H](C)O)C(=O)N[C@H](C(=O)O)[C@@H](C)O` [APL37, VCitLCitSSVESTCitGRSCitPAPPPACitGLT], the ALT level in data set [1] (at sacrifice, day 28) amounted to 47.37 ± 21.13 U/L. The “Observation on the daily condition of mice” value in data set [1] (during administration) is recorded as “No abnormality”. In data set [2], this compound showed a CD3% of 64.55 ± 17.31%, a CD4% of 28.84 ± 9.35%, a CD8% of 27.61 ± 9.99% and an IFN-γ of 5.11 ± 0.54 pg/mL. In data set [2], this compound yielded an IL-2 of 4.46 ± 0.44 pg/mL, an IL-4 of 2.18 ± 0.29 pg/mL and a TNF-α of 2.51 ± 0.41 pg/mL. For the same compound, the “Observation on the daily condition of rats” value in data set [3] (during administration) is on record as “No abnormality”. The Tuberculosis recurrence rate in data set [3] (peptides 0.2 mmol, adalimumab 1 mg/kg, 21 days) was found to be 0%. In data set [3] (sacrifice on day 22, peptides 0.2 mmol, adalimumab 1 mg/kg), the “Culture of MTB from lungs and spleens of rats at sacrifice” value is “Negative”. In addition, in data set [4], the CD3% is 38.29 ± 11.34%, the CD4% amounted to 19.25 ± 7.84%, the CD8% is listed as 18.33 ± 6.15% and the IFN-γ was 2.44 ± 0.31 pg/mL. Besides, in data set [4], the IL-2 came out at 3.28 ± 2.59 pg/mL, the IL-4 was found to be 1.77 ± 0.85 pg/mL and the TNF-α is 4.96 ± 2.01 pg/mL.

As to RSFTLASSATGVG [APL17], in the data set on PBMC, the “IL-6 levels in the supernatant” value is 5.4 ng/mL.

In the case of `C[C@H](NC(=O)CNC(=O)CNC(=O)[C@H](CCC(N)=O)NC(=O)[C@H](CCC(=O)O)NC(=O)CNC(=O)[C@H](CCCCN)NC(=O)[C@@H](N)Cc1ccccc1)C(=O)NCC(=O)N[C@@H](CCC(=O)O)C(=O)O` [APL1], the “IL-6 levels in the supernatant” value in the data set with PBMC came to 18.9 ng/mL.

As to `CC(C)C[C@H](NC(=O)[C@H](CCCNC(=N)N)NC(=O)[C@@H](NC(=O)[C@H](C)NC(=O)[C@@H](N)CO)C(C)C)C(=O)N[C@@H](CCCNC(N)=O)C(=O)N[C@@H](CCCNC(=N)N)C(=O)N[C@@H](CO)C(=O)N[C@H](C(=O)N1CCC[C@H]1C(=O)NCC(=O)N[C@H](C(=O)N[C@@H](CCCNC(=N)N)C(=O)O)C(C)C)C(C)C` [APL26, SAVRLCitRSVPGVR], in the data set on PBMC, the “IL-6 levels in the supernatant” value stood at 7 ng/mL.

As for YAKQATLKLA [APL6], the “IL-6 levels in the supernatant” value with PBMC stood at 6.5 ng/mL.

Consider RSFTLAASETGVG [APL16], for which the “IL-6 levels in the supernatant” value in the data set with PBMC worked out at 6.8 ng/mL.

As to `CC[C@H](C)[C@H](N)C(=O)N[C@@H](Cc1c[nH]c2ccccc12)C(=O)N[C@@H](Cc1ccc(O)cc1)C(=O)N[C@H](C(=O)N[C@H](C(=O)N[C@@H](CS)C(=O)N[C@@H](Cc1ccccc1)C(=O)NCC(=O)N[C@@H](CS)C(=O)N[C@@H](CCC(=O)O)C(=O)N[C@H](C(=O)N[C@@H](Cc1c[nH]cn1)C(=O)N[C@@H](C)C(=O)N[C@@H](CCSC)C(=O)N[C@@H](CC(C)C)C(=O)O)[C@@H](C)O)[C@@H](C)O)[C@@H](C)CC` [APL10] (H-IWYITCFGCETHAML-OH; N-terminus and C-terminus assumed), in the data set with PBMC, the “IL-6 levels in the supernatant” value came to 4.9 ng/mL.

Take `CC(C)C[C@H](NC(=O)[C@H](CCCCN)NC(=O)[C@H](CC(N)=O)NC(=O)[C@H](C)NC(=O)[C@H](CCCNC(N)=O)NC(=O)[C@H](CC(N)=O)NC(=O)[C@@H](NC(=O)[C@H](Cc1ccccc1)NC(=O)[C@H](CC(=O)O)NC(=O)[C@@H](N)CCC(N)=O)[C@@H](C)O)C(=O)N[C@@H](CCCCN)C(=O)N[C@@H](CC(N)=O)C(=O)N[C@@H](CO)C(=O)O` [APL35, QDFTNCitANKLKNS]: the “IL-6 levels in the supernatant” value in the data set on PBMC came to 20.8 ng/mL.

Take `CC(C)C[C@H](NC(=O)[C@H](CC(C)C)NC(=O)[C@@H](NC(=O)[C@@H](N)C(C)C)C(C)C)C(=O)N[C@H](C(=O)N[C@@H](C)C(=O)N[C@H](C(=O)N[C@@H](CCC(=O)O)C(=O)NCC(=O)N[C@@H](CCCNC(N)=O)C(=O)N[C@H](C(=O)N[C@@H](CCCNC(=N)N)C(=O)N[C@H](C(=O)N[C@@H](C)C(=O)N[C@@H](CO)C(=O)N[C@@H](C)C(=O)N[C@@H](Cc1ccc(O)cc1)C(=O)N[C@@H](CCC(N)=O)C(=O)N[C@@H](CC(=O)O)C(=O)N[C@@H](CCCCN)C(=O)O)C(C)C)C(C)C)[C@@H](C)O)C(C)C` [APL36]: the “IL-6 levels in the supernatant” value in the data set on PBMC was 6.8 ng/mL.

As to `CC(C)C[C@H](NC(=O)[C@@H](NC(=O)[C@H](Cc1ccccc1)NC(=O)[C@H](CO)NC(=O)[C@@H](N)CCCNC(=N)N)[C@@H](C)O)C(=O)N[C@@H](CC(=O)O)C(=O)N[C@@H](CO)C(=O)N[C@@H](CO)C(=O)N[C@@H](CCC(=O)O)C(=O)N[C@H](C(=O)NCC(=O)N[C@H](C(=O)NCC(=O)O)C(C)C)[C@@H](C)O` [APL15], the “IL-6 levels in the supernatant” value in the data set on PBMC amounted to 8.7 ng/mL.

On to `CC(C)C[C@H](NC(=O)[C@H](C)NC(=O)[C@@H](NC(=O)[C@H](C)NC(=O)[C@@H](N)CO)C(C)C)C(=O)N[C@@H](CCCNC(N)=O)C(=O)N[C@@H](CO)C(=O)N[C@@H](CO)C(=O)N[C@H](C(=O)N1CCC[C@H]1C(=O)NCC(=O)N[C@H](C(=O)N[C@@H](CCCNC(=N)N)C(=O)O)C(C)C)C(C)C` [APL24, SAVALCitSSVPGVR], for which the “IL-6 levels in the supernatant” value in the data set with PBMC was found to be 6.6 ng/mL.
